The NIST ThermoML archive (doi:10.1016/j.jct.2012.05.023)
± gives the expanded uncertainty stated by the source.

Tests used:
[1] = 101.3 kPa, Liquid; for speed of sound: Sing-around technique in a fixed-path interferometer; for mass density: Vibrating tube method
[2] = refractive index (Na D-line) (dimensionless); settings: 101.33 kPa, Liquid, Standard Abbe refractometry
[3] = xn = mol fraction of the nth substance listed; settings: 101.3 kPa, Liquid, x2 = 0; for speed of sound: Sing-around technique in a fixed-path interferometer; for mass density: Vibrating tube method
[4] = refractive index (Na D-line) (dimensionless); xn = mol fraction of the nth substance listed; settings: 101.3 kPa, Liquid, Standard Abbe refractometry, x2 = 0

SMILES | speed of sound ([1]; 293.15 K) [m/s] | mass density ([1]; 293.15 K) [kg/m3] | speed of sound ([1]; 303.15 K) [m/s] | mass density ([1]; 303.15 K) [kg/m3] | speed of sound ([1]; 313.15 K) [m/s] | mass density ([1]; 313.15 K) [kg/m3] | speed of sound ([1]; 323.15 K) [m/s] | mass density ([1]; 323.15 K) [kg/m3] | speed of sound ([1]; 333.15 K) [m/s] | mass density ([1]; 333.15 K) [kg/m3] | speed of sound ([1]; 343.15 K) [m/s] | mass density ([1]; 343.15 K) [kg/m3] | refractive index ([2]; 293.15 K) | refractive index ([2]; 303.15 K) | refractive index ([2]; 313.15 K) | refractive index ([2]; 323.15 K) | refractive index ([2]; 333.15 K) | refractive index ([2]; 343.15 K) | further results
c1ccc2c(c1)CCCC2 [1,2,3,4-tetrahydronaphthalene] | 1489.5 ± 1.3 | 969.52 ± 0.23 | 1450.1 ± 1.2 | 961.59 ± 0.23 | 1411.5 ± 1.2 | 953.66 ± 0.23 | 1373.6 ± 1.2 | 945.72 ± 0.23 | 1336.4 ± 1.2 | 937.77 ± 0.23 | 1299.8 ± 1.2 | 929.8 ± 0.23 | 1.54155 ± 0.00037 | 1.53687 ± 0.00037 | 1.53216 ± 0.00037 | 1.52752 ± 0.00037 | 1.52274 ± 0.00037 | 1.51795 ± 0.00037 | 
CCCCCCCCCCCC [dodecane] | 1297.9 ± 1.2 | 748.92 ± 0.24 | 1259.5 ± 1.2 | 741.66 ± 0.24 | 1221.6 ± 1.2 | 734.38 ± 0.24 | 1184.4 ± 1.2 | 727.07 ± 0.24 | 1147.8 ± 1.2 | 719.73 ± 0.24 | 1111.8 ± 1.2 | 712.34 ± 0.25 | 1.42218 ± 0.00037 | 1.41784 ± 0.00037 | 1.41346 ± 0.00037 | 1.40914 ± 0.00037 | 1.40479 ± 0.00037 | 1.40018 ± 0.00037 | 
CCCCCCCCCCCC [dodecane] + c1ccc2c(c1)CCCC2 |  |  |  |  |  |  |  |  |  |  |  |  |  |  |  |  |  |  | speed of sound ([3]; 293.15 K): 1297.9 ± 1.2 m/s; mass density ([3]; 293.15 K): 748.92 ± 0.24 kg/m3; speed of sound ([3]; 303.15 K): 1259.5 ± 1.2 m/s; mass density ([3]; 303.15 K): 741.66 ± 0.24 kg/m3; speed of sound ([3]; 313.15 K): 1221.6 ± 1.2 m/s; mass density ([3]; 313.15 K): 734.38 ± 0.24 kg/m3; speed of sound ([3]; 323.15 K): 1184.4 ± 1.2 m/s; mass density ([3]; 323.15 K): 727.07 ± 0.24 kg/m3; speed of sound ([3]; 333.15 K): 1147.8 ± 1.2 m/s; mass density ([3]; 333.15 K): 719.73 ± 0.24 kg/m3; speed of sound ([3]; 343.15 K): 1111.8 ± 1.2 m/s; mass density ([3]; 343.15 K): 712.34 ± 0.25 kg/m3; refractive index ([4]; 293.15 K): 1.42218 ± 0.00037; refractive index ([4]; 303.15 K): 1.41784 ± 0.00037; refractive index ([4]; 313.15 K): 1.41346 ± 0.00037; refractive index ([4]; 323.15 K): 1.40914 ± 0.00037; refractive index ([4]; 333.15 K): 1.40479 ± 0.00037; refractive index ([4]; 343.15 K): 1.40018 ± 0.00037
